In patent US20260000656A1, “ANTIFUNGAL AGENTS WITH ENHANCED ACTIVITY IN ACIDIC PH” (Scynexis, Inc., priority 2017, published 2026):
Converted amounts (≈) assume the structure as drawn. Where two headings read alike, the source gives them in different places.

Key:
[1] = test system: C. glabrata isolates; assay: Broth microdilution susceptibility (CLSI M27-A3) at different medium pH; type: cell-based, Candida glabrata; conditions: for MIC range: 50% inhibition; for MIC range / MIC50 / MIC90: 10 vaginal isolates; for MIC50 / MIC90 / MIC: Nakaseomyces glabratus, 24 h; for MIC50: read-out: MIC50; for MIC90: read-out: MIC90; for MIC: read-out: MIC (50% inhibition)
Method: (§1) Ten strains each of C. glabrata and C. albicans vaginal isolates were tested. The strains were obtained from recent clinical trial patients with vulvovaginal candidiasis (VVC) prior to treatment. Candida strains were obtained from the Mycology Reference Library (MRL) at Case Western Reserve University School of Medicine, Ohio, United States.
(§2) Susceptibility testing was performed using a broth microdilution method, according to CLSI M27-A3 guidelines (CLSI. 2008. Reference Method for Broth Dilution Antifungal Susceptibility Testing of Yeasts; Approved Standard—Third Edition. Clinical and Laboratory Standards Institute, CLSI document M27-A3). Antifungals and concentrations tested were SCY-078 and micafungin (both at concentrations within the range of 0.015 to 8 μg/ml) and fluconazole (at concentrations within the range of 0.125 to 64 μg/ml). A 0.1-ml C. albicans and C. glabrata inoculum of 0.5-2.5×10^3 blastospores/ml in RPMI 1640 medium was added to each microdilution well. ATCC strains of Candida parapsilosis and Candida krusei QC isolates were also included concurrently to ensure quality control. Antifungal susceptibility testing was carried out for each isolate in RPMI 1640 at pH 7 (to mimic RPMI medium used in testing the susceptibility of yeast by the CLSI M-27A3 document), pH 5.7, and pH 4.5 (to mimic the pH of the vaginal cavity) by adjusting the pH of the media using NaOH or HCl. […] Agents Chemother., 43: 1383-1386 (1999).
(§3) […] SCY-078 powder was manufactured by Avista, Laboratories, NC. Micafungin and fluconazole were sourced from LGM Pharma.

[2] = test system: C. albicans isolates; assay: as above; type: cell-based, Candida albicans; conditions: for MIC range / MIC50 / MIC90: 10 vaginal isolates; for MIC90: read-out: MIC90; for MIC: read-out: MIC (50% inhibition)
Method: as §1, §2, §3

[3] = pH 4.5, 50% inhibition, pH 4.5, 24 h
[4] = pH 5.72, 50% inhibition, pH 5.72, 24 h
[5] = pH 7, 50% inhibition, pH 7.0, 24 h

OC(Cn1cncn1)(Cn1cncn1)c1ccc(F)cc1F [Fluconazole, reference compound]
MIC range ([1]; pH 4.5, 24 h): 1 to 16 µg/mL | MIC range ([1]; pH 5.72, 24 h): 2 to 16 µg/mL | MIC range ([1]; pH 7.0, 24 h): 0.5 to 2 µg/mL | increase in MIC50, pH 7 compared to pH 4.5 ([1]; C. glabrata isolates): 8 fold | MIC50 [1, 3]: 8 µg/mL (≈ 26.1 µM) | MIC90 [1, 3]: 16 µg/mL (≈ 52.2 µM) | MIC ([1]; pH 4.5, C. glabrata MRL 32075, pH 4.5, 24 hours): 8 µg/mL (≈ 26.1 µM) | MIC ([1]; pH 4.5, C. glabrata MRL 32232, pH 4.5, 24 hours): 8 µg/mL (≈ 26.1 µM) | MIC ([1]; pH 4.5, C. glabrata MRL 32626, pH 4.5, 24 hours): 8 µg/mL (≈ 26.1 µM) | MIC ([1]; pH 4.5, C. glabrata MRL 32993, pH 4.5, 24 hours): 16 µg/mL (≈ 52.2 µM) | MIC ([1]; pH 4.5, C. glabrata MRL 33204, pH 4.5, 24 hours): 8 µg/mL (≈ 26.1 µM) | MIC ([1]; pH 4.5, C. glabrata MRL 33960, pH 4.5, 24 hours): 16 µg/mL (≈ 52.2 µM) | MIC ([1]; pH 4.5, C. glabrata MRL 33961, pH 4.5, 24 hours): 1 µg/mL (≈ 3.27 µM) | MIC ([1]; pH 4.5, C. glabrata MRL 34339, pH 4.5, 24 hours): 8 µg/mL (≈ 26.1 µM) | MIC ([1]; pH 4.5, C. glabrata MRL 34407, pH 4.5, 24 hours): 8 µg/mL (≈ 26.1 µM) | MIC ([1]; pH 4.5, C. glabrata MRL 34576, pH 4.5, 24 hours): 16 µg/mL (≈ 52.2 µM) | MIC50 [1, 4]: 8 µg/mL (≈ 26.1 µM) | MIC90 [1, 4]: 16 µg/mL (≈ 52.2 µM) | MIC ([1]; pH 5.72, C. glabrata MRL 32075, pH 5.72, 24 hours): 8 µg/mL (≈ 26.1 µM) | MIC ([1]; pH 5.72, C. glabrata MRL 32232, pH 5.72, 24 hours): 8 µg/mL (≈ 26.1 µM) | MIC ([1]; pH 5.72, C. glabrata MRL 32626, pH 5.72, 24 hours): 8 µg/mL (≈ 26.1 µM) | MIC ([1]; pH 5.72, C. glabrata MRL 32993, pH 5.72, 24 hours): 16 µg/mL (≈ 52.2 µM) | MIC ([1]; pH 5.72, C. glabrata MRL 33204, pH 5.72, 24 hours): 8 µg/mL (≈ 26.1 µM) | MIC ([1]; pH 5.72, C. glabrata MRL 33960, pH 5.72, 24 hours): 16 µg/mL (≈ 52.2 µM) | MIC ([1]; pH 5.72, C. glabrata MRL 33961, pH 5.72, 24 hours): 2 µg/mL (≈ 6.53 µM) | MIC ([1]; pH 5.72, C. glabrata MRL 34339, pH 5.72, 24 hours): 2 µg/mL (≈ 6.53 µM) | MIC ([1]; pH 5.72, C. glabrata MRL 34407, pH 5.72, 24 hours): 8 µg/mL (≈ 26.1 µM) | MIC ([1]; pH 5.72, C. glabrata MRL 34576, pH 5.72, 24 hours): 8 µg/mL (≈ 26.1 µM) | MIC50 [1, 5]: 1 µg/mL (≈ 3.27 µM) | MIC90 [1, 5]: 2 µg/mL (≈ 6.53 µM) | MIC ([1]; pH 7, C. glabrata MRL 32075, pH 7.0, 24 hours): 2 µg/mL (≈ 6.53 µM) | MIC ([1]; pH 7, C. glabrata MRL 32232, pH 7.0, 24 hours): 2 µg/mL (≈ 6.53 µM) | MIC ([1]; pH 7, C. glabrata MRL 32626, pH 7.0, 24 hours): 1 µg/mL (≈ 3.27 µM) | MIC ([1]; pH 7, C. glabrata MRL 32993, pH 7.0, 24 hours): 2 µg/mL (≈ 6.53 µM) | MIC ([1]; pH 7, C. glabrata MRL 33204, pH 7.0, 24 hours): 2 µg/mL (≈ 6.53 µM) | MIC ([1]; pH 7, C. glabrata MRL 33960, pH 7.0, 24 hours): 1 µg/mL (≈ 3.27 µM) | MIC ([1]; pH 7, C. glabrata MRL 33961, pH 7.0, 24 hours): 1 µg/mL (≈ 3.27 µM) | MIC ([1]; pH 7, C. glabrata MRL 34339, pH 7.0, 24 hours): 0.5 µg/mL (≈ 1.63 µM) | MIC ([1]; pH 7, C. glabrata MRL 34407, pH 7.0, 24 hours): 1 µg/mL (≈ 3.27 µM) | MIC ([1]; pH 7, C. glabrata MRL 34576, pH 7.0, 24 hours): 1 µg/mL (≈ 3.27 µM) | MIC range ([2]; 50% inhibition, pH 4.5, 24 h): 0.25 to 8 µg/mL | MIC50 ([2]; 50% inhibition, pH 5.72, 24 h): < 0.125 µg/mL | MIC range ([2]; 50% inhibition, pH 5.72, 24 h): <0.125 to 1 µg/mL | MIC range ([2]; 50% inhibition, pH 7.0, 24 h): <0.125 to 1 µg/mL | MIC50 ([2]; Candida albicans, 24 h, pH 4.5, 50% inhibition, pH 4.5, 24 h, read-out: MIC50): 0.25 µg/mL (≈ 0.816 µM) | MIC90 ([2]; Candida albicans, 24 h, pH 4.5, 50% inhibition, pH 4.5, 24 h): 1 µg/mL (≈ 3.27 µM) | MIC ([2]; Candida albicans, 24 h, pH 4.5, C. albicans MRL 34366, pH 4.5, 24 hours): 0.25 µg/mL (≈ 0.816 µM) | MIC ([2]; Candida albicans, 24 h, pH 4.5, C. albicans MRL 34367, pH 4.5, 24 hours): 1 µg/mL (≈ 3.27 µM) | MIC ([2]; Candida albicans, 24 h, pH 4.5, C. albicans MRL 34372, pH 4.5, 24 hours): 0.25 µg/mL (≈ 0.816 µM) | MIC ([2]; Candida albicans, 24 h, pH 4.5, C. albicans MRL 34373, pH 4.5, 24 hours): 0.5 µg/mL (≈ 1.63 µM) | MIC ([2]; Candida albicans, 24 h, pH 4.5, C. albicans MRL 34374, pH 4.5, 24 hours): 0.25 µg/mL (≈ 0.816 µM) | MIC ([2]; Candida albicans, 24 h, pH 4.5, C. albicans MRL 34385, pH 4.5, 24 hours): 0.25 µg/mL (≈ 0.816 µM) | MIC ([2]; Candida albicans, 24 h, pH 4.5, C. albicans MRL 34389, pH 4.5, 24 hours): 0.5 µg/mL (≈ 1.63 µM) | MIC ([2]; Candida albicans, 24 h, pH 4.5, C. albicans MRL 34399, pH 4.5, 24 hours): 8 µg/mL (≈ 26.1 µM) | MIC ([2]; Candida albicans, 24 h, pH 4.5, C. albicans MRL 34408, pH 4.5, 24 hours): 0.25 µg/mL (≈ 0.816 µM) | MIC ([2]; Candida albicans, 24 h, pH 4.5, C. albicans MRL 34449, pH 4.5, 24 hours): 0.5 µg/mL (≈ 1.63 µM) | MIC50 ([2]; Candida albicans, 24 h, pH 5.72, 50% inhibition, pH 5.72, 24 h, read-out: MIC50): < 0.125 µg/mL | MIC90 ([2]; Candida albicans, 24 h, pH 5.72, 50% inhibition, pH 5.72, 24 h): 0.25 µg/mL (≈ 0.816 µM) | MIC ([2]; Candida albicans, 24 h, pH 5.72, C. albicans MRL 34366, pH 5.72, 24 hours): < 0.125 µg/mL | MIC ([2]; Candida albicans, 24 h, pH 5.72, C. albicans MRL 34367, pH 5.72, 24 hours): 0.25 µg/mL (≈ 0.816 µM) | MIC ([2]; Candida albicans, 24 h, pH 5.72, C. albicans MRL 34372, pH 5.72, 24 hours): < 0.125 µg/mL | MIC ([2]; Candida albicans, 24 h, pH 5.72, C. albicans MRL 34373, pH 5.72, 24 hours): < 0.125 µg/mL | MIC ([2]; Candida albicans, 24 h, pH 5.72, C. albicans MRL 34374, pH 5.72, 24 hours): < 0.125 µg/mL | MIC ([2]; Candida albicans, 24 h, pH 5.72, C. albicans MRL 34385, pH 5.72, 24 hours): < 0.125 µg/mL | MIC ([2]; Candida albicans, 24 h, pH 5.72, C. albicans MRL 34389, pH 5.72, 24 hours): < 0.125 µg/mL | MIC ([2]; Candida albicans, 24 h, pH 5.72, C. albicans MRL 34399, pH 5.72, 24 hours): 1 µg/mL (≈ 3.27 µM) | MIC ([2]; Candida albicans, 24 h, pH 5.72, C. albicans MRL 34408, pH 5.72, 24 hours): 0.25 µg/mL (≈ 0.816 µM) | MIC ([2]; Candida albicans, 24 h, pH 5.72, C. albicans MRL 34449, pH 5.72, 24 hours): < 0.125 µg/mL | MIC50 ([2]; Candida albicans, 24 h, pH 7, 50% inhibition, pH 7.0, 24 h, read-out: MIC50): 0.25 µg/mL (≈ 0.816 µM) | MIC90 ([2]; Candida albicans, 24 h, pH 7, 50% inhibition, pH 7.0, 24 h): 0.25 µg/mL (≈ 0.816 µM) | MIC ([2]; Candida albicans, 24 h, pH 7, C. albicans MRL 34366, pH 7.0, 24 hours): < 0.125 µg/mL | MIC ([2]; Candida albicans, 24 h, pH 7, C. albicans MRL 34367, pH 7.0, 24 hours): 0.25 µg/mL (≈ 0.816 µM) | MIC ([2]; Candida albicans, 24 h, pH 7, C. albicans MRL 34372, pH 7.0, 24 hours): < 0.125 µg/mL | MIC ([2]; Candida albicans, 24 h, pH 7, C. albicans MRL 34373, pH 7.0, 24 hours): 0.25 µg/mL (≈ 0.816 µM) | MIC ([2]; Candida albicans, 24 h, pH 7, C. albicans MRL 34374, pH 7.0, 24 hours): 0.25 µg/mL (≈ 0.816 µM) | MIC ([2]; Candida albicans, 24 h, pH 7, C. albicans MRL 34385, pH 7.0, 24 hours): < 0.125 µg/mL | MIC ([2]; Candida albicans, 24 h, pH 7, C. albicans MRL 34389, pH 7.0, 24 hours): < 0.125 µg/mL | MIC ([2]; Candida albicans, 24 h, pH 7, C. albicans MRL 34399, pH 7.0, 24 hours): 1 µg/mL (≈ 3.27 µM) | MIC ([2]; Candida albicans, 24 h, pH 7, C. albicans MRL 34408, pH 7.0, 24 hours): 0.25 µg/mL (≈ 0.816 µM) | MIC ([2]; Candida albicans, 24 h, pH 7, C. albicans MRL 34449, pH 7.0, 24 hours): 0.25 µg/mL (≈ 0.816 µM)
